Results published in patent US20060128613A1, “Melanocortin receptor ligands” (The Procter & Gamble Company, priority 2003, published 2006).

Experiment: Composition and Method Examples A-E: treatment of obese human subjects to incur or maintain weight loss
Type: in vivo
Method: An obese human subject weighing 130 kg is treated by this method to incur weight loss. Specifically, once each day for a period of 6 months, the subject is administered, via intravenous injection, 15 ml of an aqueous solution comprising the following:
An obese human subject weighing 150 kg is subjected to a weight-reduction program that achieves weight loss with reduced adiposity through a combination of a restricted diet and increased exercise. Specifically, once each day for a period of 6 months after weight loss, the subject is administered, via intravenous injection, 15 ml of an aqueous solution comprising the following:
An obese human subject weighing 165 kg is subjected to a weight reduction program that achieves weight loss through a combination of restricted diet, increased exercise and subcutaneous injection daily of 15 mls of an aqueous solution comprising:
Once the desired weight loss has been achieved, the patient's weight loss is maintained through continuation of the intravenous injection once each day for an additional period of 6 months.
An obese human subject weighing 140 kg is treated by the present method to incur weight loss. Specifically, they are treated with an implantable subcutaneous pump that delivers 0.1 mg/kg of the compound of Example 31 over a 24 hour period. The pump contains a solution of the compound dissolved in a solution of 50% propylene glycol and 50% sterile water.
An obese person weighing 150 kg is treated by this method to incur weight loss. Specifically, they are treated with an oral tablet taken twice daily containing 300 mg of the compound in Example 29.

Which “weight loss and adiposity after six-month treatment” value (Example D: obese human 140 kg, implantable subcutaneous pump delivering 0.1 mg/kg over 24 hours, six months) does the source give for “Ac-(L-4-Chloro-Phe)fRW(N-Me-Gly)-NH2 [Example 31]” here?
Its value is “weight loss and reduced adiposity”.

With Ac—YfHW—NH2 [Example 9] as the substance, how does the “maintenance of weight loss and adiposity at the end of the treatment period” value (Example B: obese human 150 kg after diet and exercise weight loss, intravenous injection once each day for 6 months, 15 ml, 5 mg/ml) read?
Its value is “maintenance of weight loss and reduced adiposity”.

With “Ac-(L-4-Chloro-Phe)(D-4-Fluoro-Phe)RW—NH2 [Example 29]” as the substance, how does the “weight loss and adiposity after 12 months treatment” value (Example E: obese person 150 kg, oral tablet 300 mg twice daily, 12 months) read?
The value was “weight loss and reduced adiposity”.

Which “maintained weight loss and adiposity at the end of the treatment period” value (Example C: obese human 165 kg, diet, exercise and daily subcutaneous injection of 15 ml, 5 mg/ml, then injection once each day for additional 6 months) does the source give for “3-(4-OHPh)propanoyl-(4-F-f)RW—NH2 [Example 88]” here?
The value was “maintained weight loss and reduced adiposity”.

Which “weight loss at the end of the treatment period” value (Example A: obese human 130 kg, intravenous injection once each day for 6 months, 15 ml aqueous solution, 5 mg/ml) does the source give for Ac—YfRW—NH2 [Example 1] here?
The value was “measurable weight loss”.
